The source of these data is patent publication US20060013804A1, “Modulation of stem cell differentiation by modulation of caspase-3 activity” (Ottawa Health Research Institute, priority 2002, published 2006).

Type in all cases: cell-based, mouse
One assay relates to ASK1. The assay can be described thus: Immunoprecipitation/kinase assay of ASK1 from neurospheres. The conditions noted are these: differentiation media, vs DMSO. On the procedure: (§1) Immunoprecipitation/Kinase activity assays: Immunoprecipitation/kinase analyses were performed as previously described (Fernando, P., et al., (2002) Proc Natl Acad Sci USA 99, 11025-11030). Cellular lysates from neurospheres were generated as described above. Antibodies against apoptotic signal-regulating kinase 1 (ASK1) (Upstate, USA), p21 activated kinase 1 (PAK1) (Cell Signaling Technologies, USA), and p38 MAPK (Santa Cruz, USA) were used to immunoprecipitate respective proteins. Samples were mixed with Protein G-sepharose beads for 1 h, washed and then mixed with kinase assay buffer containing myelin basic protein (MBP) and γ-32P[ATP]. Samples were reacted at 30° C. for 30 min and separated using SDS-PAGE. In some instances, samples were transferred to PVDF membrane following electrophoresis. To quantify kinase activities, MBP acrylamide bands were excised and solubilized in scintillation fluid prior to 32P-liquid scintillation analyses. In all cases, an activated recombinant mitogen activated protein kinase activated protein-2 (MAPKAP kinase-2) (Upstate, USA) was used as an internal control for liquid scintillation analyses.
(§2) Caspase 3, when processed to its active form, is capable of targeting and activating many protein kinases that mediate cellular differentiation. […]

The next assay relates to PAK1. The assay can be described thus: Immunoprecipitation/kinase assay of PAK1 from neurospheres. The conditions noted are these: differentiation media, vs DMSO. As for the experimental part: as §1, §2
A further assay has as its system p38α. The assay can be described thus: Immunoprecipitation/kinase assay of p38α from neurospheres. The conditions noted are these: differentiation media under caspase 3 inhibition. As for the experimental part:
as §1
ASK1 activity was reduced when cells were treated with differentiation media containing z-DEVD (DEVD condition) compared to differentiation media alone (DMSO condition) (FIG. 19c,d). Both PAK1 and ASK1 have been linked to the downstream activity of p38 MAPK. […]

Assay [1] relates to primary striatal stem cells (neurospheres). The experiment in a line: Primary striatal neurospheres with or without caspase-3 inhibitor, immunostaining for neural lineage markers. The conditions noted are these: 1 μM inhibitor. On the procedure: After sacrificing, the abdomen was sprayed with 70% ethanol. A 2 cm incision is made vertically up the abdomen. The horn was removed with sterile tweezers, and placed in PBS. The horn was cut open the horn to expose one embryo at a time and each embryo was placed in a separate 35 mm tissue culture dish containing 2 ml PBS. Each embryo was pinned to the dish and the cortex peeled off layer by layer to expose the striatum, which was then removed. The striatal tissue was placed in a 50 ml Falcon Tube containing cold Hank's Balanced Salt Solution (HBSS) on ice and the tissue allowed to settle at the bottom of the tube. The HBSS was replaced with 2 ml of Complete Neurocult Proliferation Media and the tissue triturated gently until only a few fragments of tissue remained. The supernatant was then collected and the fragments of tissue were triturated in 1 ml media. The supernatant was again removed and stored with the first supernatant that was collected.
At this point the number of cells can be counted using an aliquot of Trypan Blue (1/5 dilution). Cells were seeded at a density of 1 million cells per 25 ml of Complete Proliferation Media and grown in Complete Neurocult Proliferation Media for 4 days, at which time they were expanded if the plates appeared too confluent. If expansion was not necessary, the cells were allowed to grow for a few more days prior to harvesting. To expand the primary culture, half the cell suspension was placed in a new dish and 12.5 ml of Complete Proliferation Media was added to each of the initial plate and the expanded plate. After a few days, once most of the spheres had lifted off the dish, the sphere suspension was confluent. At this time, cells were either passaged in growth media, frozen, or plated onto a differentiation plate.
Plating and Differentiation of Striatal Stem Cells: In order to differentiate neurospheres, they must be plated onto a surface coated with Laminin and Poly-D-Lysine. The sphere suspension was collected from a 10 cm dish, placed in a 50 ml tube and centrifuged at 500 rpm for 5 min at 4° C. The supernatant was aspirated and discarded, then 2 ml of Complete Neurocult Proliferation Media was added and the sphere pellet gently triturated until the spheres were resuspended. The sphere suspension was then diluted in Complete Neurocult Proliferation Media to obtain the desired concentration (one 10 cm dish of neurospheres is appropriate for approximately 4 coated chamber slides). 2 ml aliquots of sphere suspension were plated per chamber and after a few hours at 37° C., the medium was changed to Complete Neurocult Differentiation media.
Paraformaldehyde (PFA) Fixing of Cells: Freshly made 4% PFA was used. Media was aspirated out of wells and each well was washed with 2 ml PBS for 3 min. […]

As for `COC(=O)CC[C@H](NC(=O)[C@H](CC(=O)OC)NC(=O)OCc1ccccc1)C(=O)N[C@H](C(=O)N[C@@H](CC(=O)OC)C(=O)CF)C(C)C` [z-DEVD.fmk], in the assay with ASK1 (listed as DEVD), the ASK1 kinase activity result was “decrease”. The ASK1 kinase activity entry in the assay on ASK1 (listed as z-DEVD) is reported as “reduced”. The PAK1 activity result in the assay with PAK1 is “reduced”. Moreover, in the assay on p38α, the p38α kinase activity result is on record as “very low levels of p38α kinase activity”. Moreover, in assay [1] (48 h differentiation), the “glial fibrillary acid protein staining (astrocytes)” value is given as “showed no staining for astrocytes”, the “myelin basic protein staining (oligodendricytes)” value is on record as “did not stain positive for oligodendricytes” and the “nestin staining after differentiation” value is “retain their undifferentiated lineage as demonstrated by the presence of nestin”. Further, the “cell cycling (nestin staining during proliferation)” value in assay [1] (proliferating striatal stem cells) is “does not have an effect on cell cycling”.
